In brackets after ≈: the same amount, converted by molar mass.
How the values were obtained:
Test in all cases: Antibacterial assay, microtitration MIC (Test A)
Type in all cases: cell-based
[1] = test system: S. pneumo SV-1; settings: Gram Positive Bacteria; strain SV-1; read-out: Minimum Inhibitory Concentrations S. pneumo SV-1
Method: (§1) The compounds of the present invention were tested against an assortment of Gram-negative and Gram-positive organisms using standard microtitration techniques (Cohen et. al., Antimicrob., 1985;28:766; Heifetz, et. al., Antimicrob., 1974;6:124). The results of the evaluation are shown in Tables 1A and B, wherein “-” means no data.

[2] = test system: S. aureus UC-76; settings: strain UC-76; for MIC: Staphylococcus aureus, UC76, Gram Positive Bacteria, read-out: Minimum Inhibitory Concentrations S. aureus UC-76
Method: as §1

[3] = test system: E. faecalis MGH-2; settings: strain MGH-2; for MIC: Enterococcus faecalis, MGH2, Gram Positive Bacteria, read-out: Minimum Inhibitory Concentrations E. faecalis MGH-2
Method: as §1

[4] = test system: S pyogenes C203; settings: Gram Positive Bacteria, strain C203; for MIC: read-out: Minimum Inhibitory Concentrations S pyogenes C203
Method: as §1

[5] = test system: H. influenzae HI-3542; settings: strain HI-3542; for MIC: Haemophilus influenzae, HI3542, Gram Negative Bacteria, read-out: Minimum Inhibitory Concentrations H. influenzae HI-3542
Method: as §1

[6] = test system: M. catarrhalis BC-3531; settings: strain BC-3531; for MIC: Moraxella catarrhalis, BC3531, Gram Negative Bacteria, read-out: Minimum Inhibitory Concentrations M. catarrhalis BC-3531
Method: as §1

[7] = test system: E. coli EC-2549; settings: strain EC-2549; for MIC: Escherichia coli, EC2549, Gram Negative Bacteria, read-out: Minimum Inhibitory Concentrations E. coli EC-2549
Method: as §1

| Structure (SMILES) | MIC [1] [µg/mL] | MIC [2] [µg/mL] | MIC [3] [µg/mL] | MIC [4] [µg/mL] | MIC [5] [µg/mL] | MIC [6] [µg/mL] | MIC [7] [µg/mL] | other results |
| --- | --- | --- | --- | --- | --- | --- | --- | --- |
| CC(=O)OC[C@@H]1CN(c2c(F)cc3c(=O)c(C(=O)O)cn(C4CC4)c3c2C)C[C@@H]1COC(C)=O [drawing 411] | 0.06 (≈ 0.126 µM) | 0.015 (≈ 0.0316 µM) | 0.125 (≈ 0.263 µM) | 0.125 (≈ 0.263 µM) | – | – | – | – |
| COc1c(N2C[C@@H](CCO)[C@@H](CCO)C2)c(F)cc2c(=O)c(C(=O)O)cn(C3CC3)c12 [drawing 415] | 0.06 (≈ 0.138 µM) | 0.004 (≈ 0.00921 µM) | 0.125 (≈ 0.288 µM) | 0.06 (≈ 0.138 µM) | – | – | – | – |
| COc1c(N2CCC(C(O)CO)C2)c(F)cc2c(=O)c(C(=O)O)cn(C3CC3)c12 (stereo not shown) [drawing 355] | 0.03 (≈ 0.0738 µM) | 0.002 (≈ 0.00492 µM) | 0.03 (≈ 0.0738 µM) | 0.03 (≈ 0.0738 µM) | – | – | – | – |
| Cc1c(N2C[C@@H]3CC[C@@H](O)[C@@H]3C2)c(F)cc2c(=O)c(C(=O)O)cn(C3CC3)c12 [drawing 453] | 0.03 (≈ 0.0776 µM) | 0.004 (≈ 0.0104 µM) | 0.06 (≈ 0.155 µM) | 0.06 (≈ 0.155 µM) | – | – | – | – |
| COc1c(N2C[C@@H](CO)[C@@H](CO)C2)c(F)cc2c(=O)c(C(=O)O)cn(C3CC3)c12 [drawing 403] | 0.06 (≈ 0.148 µM) | 0.002 (≈ 0.00492 µM) | 0.06 (≈ 0.148 µM) | 0.06 (≈ 0.148 µM) | – | – | – | – |
| COc1c(N2CCC(C(O)C3(O)CC3)C2)c(F)cc2c(=O)c(C(=O)O)cn(C3CC3)c12 (stereo not shown) [drawing 361] | 0.25 (≈ 0.578 µM) | 0.015 (≈ 0.0347 µM) | 0.5 (≈ 1.16 µM) | 0.25 (≈ 0.578 µM) | – | – | – | – |
| Cc1c(N2C[C@@H](COC(=O)C(C)C)[C@@H](COC(=O)C(C)C)C2)c(F)cc2c(=O)c(C(=O)O)cn(C3CC3)c12 [drawing 413] | 0.125 (≈ 0.236 µM) | 1 (≈ 1.88 µM) | 4 (≈ 7.54 µM) | 0.25 (≈ 0.471 µM) | – | – | – | – |
| Cc1c(N2CC(C)(CO)C(C)(CO)C2)c(F)cc2c(=O)c(C(=O)O)cn(C3CC3)c12 (stereo not shown) [drawing 440] | 0.5 (≈ 1.19 µM) | – | – | – | – | – | – | Minimum Inhibitory Concentrations S. aureus UC-76 ([2]; Gram Positive Bacteria): 0.015 µg/mL; Minimum Inhibitory Concentrations E. faecalis MGH-2 ([3]; Gram Positive Bacteria): 1 µg/mL; Minimum Inhibitory Concentrations S pyogenes C203 [4]: 1 µg/mL |
| COc1c(N2CC3CC(O)C(O)C3C2)c(F)cc2c(=O)c(C(=O)O)cn(C3CC3)c12 (stereo not shown) | 0.25 (≈ 0.597 µM) | 0.008 (≈ 0.0191 µM) | 0.25 (≈ 0.597 µM) | 0.25 (≈ 0.597 µM) | – | – | – | – |
| O=C(O)c1cn(-c2ccc(F)cc2F)c2nc(N3C[C@@H](CO)[C@@H](CO)C3)c(F)cc2c1=O [drawing 398] | 0.5 (≈ 1.11 µM) | 0.06 (≈ 0.134 µM) | 0.5 (≈ 1.11 µM) | 0.5 (≈ 1.11 µM) | – | – | – | – |
| Nc1c(F)c(N2CCC(C(O)C(F)(F)F)C2)c(F)c2c1c(=O)c(C(=O)O)cn2C1CC1 (stereo not shown) [drawing 332] | – | – | – | – | 0.004 (≈ 0.00894 µM) | 0.008 (≈ 0.0179 µM) | 0.06 (≈ 0.134 µM) | – |
| O=C(O)c1cn(C2CC2)c2nc(N3CCC(C(O)C(F)(F)F)C3)c(F)cc2c1=O (stereo not shown) [drawing 334] | – | – | – | – | 0.016 (≈ 0.0385 µM) | 0.016 (≈ 0.0385 µM) | 0.125 (≈ 0.301 µM) | – |
| Cc1c(N2CCC(C(O)C(C)(F)F)C2)c(F)cc2c(=O)c(C(=O)O)cn(C3CC3)c12 (stereo not shown) [drawing 336] | – | – | – | – | 0.03 (≈ 0.0707 µM) | 0.03 (≈ 0.0707 µM) | 0.125 (≈ 0.295 µM) | – |
| O=C(O)c1cn(C2CC2)c2c(Cl)c(N3CCC(C(O)C(F)F)C3)c(F)cc2c1=O (stereo not shown) [drawing 312] | – | – | – | – | 0.004 (≈ 0.00928 µM) | 0.008 (≈ 0.0186 µM) | 0.06 (≈ 0.139 µM) | – |
| Cc1c(N2CC(C(O)CO)C3(CC3)C2)c(F)cc2c(=O)c(C(=O)O)cn(C3CC3)c12 (stereo not shown) [drawing 422] | – | – | – | – | 0.015 (≈ 0.036 µM) | 0.03 (≈ 0.072 µM) | 0.125 (≈ 0.3 µM) | – |
| Cc1c(N2CC(C)(CO)C(C)(CO)C2)c(F)cc2c(=O)c(C(=O)O)cn(C3CC3)c12 (stereo not shown) [drawing 437] | – | – | – | – | – | – | – | Minimum Inhibitory Concentrations H. influenzae HI-3542 ([5]; Gram Negative Bacteria): 0.06 µg/mL; Minimum Inhibitory Concentrations M. catarrhalis BC-3531 ([6]; Gram Negative Bacteria): 0.06 µg/mL; Minimum Inhibitory Concentrations E. coli EC-2549 ([7]; Gram Negative Bacteria): 0.5 µg/mL |
| Nc1nc(-n2cc(C(=O)O)c(=O)c3cc(F)c(N4CCC(C(O)C(F)F)C4)c(Cl)c32)c(F)cc1F (stereo not shown) [drawing 313] | – | – | – | – | 0.008 (≈ 0.0154 µM) | 0.015 (≈ 0.0289 µM) | 0.25 (≈ 0.482 µM) | – |
| CCOC[C@@H]1CN(c2c(F)cc3c(=O)c(C(=O)O)cn(C4CC4)c3c2C)C[C@@H]1CO [drawing 390] | – | – | – | – | 0.03 (≈ 0.0717 µM) | 0.03 (≈ 0.0717 µM) | 0.125 (≈ 0.299 µM) | – |
| Cc1c(N2CC(CO)C3(CC3)C2)c(F)cc2c(=O)c(C(=O)O)cn(C3CC3)c12 (stereo not shown) [drawing 419] | – | – | – | – | 0.015 (≈ 0.0388 µM) | 0.008 (≈ 0.0207 µM) | 0.125 (≈ 0.323 µM) | – |
| Cc1c(N2C[C@@H]3CC[C@@H](O)[C@@H]3C2)c(F)cc2c(=O)c(C(=O)O)cn(C3CC3)c12 [drawing 442] | – | – | – | – | 0.008 (≈ 0.0207 µM) | 0.008 (≈ 0.0207 µM) | 0.03 (≈ 0.0776 µM) | – |
| O=C(O)c1cn(C2CC2)c2c(Cl)c(N3CCC(C(O)CO)C3)c(F)cc2c1=O (stereo not shown) [drawing 324] | – | – | – | – | 0.004 (≈ 0.00974 µM) | 0.016 (≈ 0.0389 µM) | 0.06 (≈ 0.146 µM) | – |
| O=C(O)c1cn(C2CC2)c2c(Cl)c(N3CCC(C(O)C(F)(F)F)C3)c(F)cc2c1=O (stereo not shown) | – | – | – | – | 0.004 (≈ 0.00891 µM) | 0.004 (≈ 0.00891 µM) | 0.06 (≈ 0.134 µM) | – |

— patent US20050107423A1, “Quinolone antibacterial agents” (priority 2003, published 2005)
